Reference: US9815796B2 (Merck Sharp & Dohme Corp., priority 2013, dated 2017)

Target: human PDE2A1 (Homo sapiens (Human), UniProt O00408)
Assay: IMAP FP PDE selectivity panel, human PDE2A1
Type: biochemical
Details: Human PDE2, Lab B; read-out: Human PDE2 Ki (nM) - Lab B
Description: Selectivity for PDE2, as compared to other PDE families, was assessed using the IMAP® technology. Human PDE 10A2 enzyme was prepared from cytosolic fractions of transiently transfected HEK cells. All other PDE's were GST Tag human enzyme expressed in insect cells and were obtained from BPS Bioscience (San Diego, Calif.): PDE1A (Cat#60010), human PDE2A1 (Cat#60020), PDE3A (Cat#60030), PDE4A1A (Cat#60040), PDE5A1 (Cat#60050), PDE6C (Cat#60060), PDE7A (Cat#60070), PDE8A1 (Cat#60080), PDE9A2 (Cat#60090), PDE11A4 (Cat#60110).
Assays for PDE 1 through 11 were performed in parallel at room temperature in 384-well microtiter plates with an incubation volume of 20.2 μL. Solutions of test compounds were prepared in DMSO and serially diluted with DMSO to yield 30 μL of each of ten solutions differing by 3-fold in concentration, at 32 serial dilutions per plate. […] A Labcyte POD 810 (Labcyte, Sunnyvale, Calif.) was used to dispense 200 nL from each well of the titration plate to make eleven copies of the assay plate for each titration, one copy for each PDE enzyme. A solution of each enzyme (dilution from aliquots, sufficient to produce 20% substrate conversion) and a separate solution of FAM-labeled cAMP or FAM-labeled cGMP from Molecular Devices (Sunnyvale, Calif., product # R7506 or cGMP#R7508), at a final concentration of 50 nM were made in the assay buffer (10 mM Tris HCl, pH 7.2, 10 mM MgCl2, 0.05% NaN3 0.01% Tween-20, and 1 mM DTT). Note that the substrate for PDE2 is 50 nM FAM cAMP containing 1000 nM of cGMP. The enzyme and the substrate were then added to the assay plates in two consecutive additions of 10 μL and then shaken to mix. The reaction was allowed to proceed at room temperature for 60 minutes. A binding solution was then made from the kit components, comprised of 80% Solution A, 20% Solution B and binding reagent at a volume of 1/600 the total binding solution. The enzymatic reaction was stopped by addition of 60 μL of the binding solution to each well of the assay plate. The plates were sealed and shaken for 10 seconds. The plates were incubated at room temperature for one hour, then the parallel and perpendicular fluorescence was measured using a Tecan Genios Pro plate reader (Tecan, Switzerland). The apparent inhibition constants for the compounds against all 11 PDE's was determined from the parallel and perpendicular fluorescent readings as described for PDE10 FP assay using the following apparent KM values for each enzyme and substrate combination: PDE1A (FAM cGMP) 70 nM, human PDE2A1 (FAM cAMP) 10,000 nM, PDE3A (FAM cAMP) 50 nM, PDE4A1A (FAM cAMP) 1500 nM, PDE5A1 (FAM cGMP) 400 nM, PDE6C (FAM cGMP) 700 nM, PDE7A (FAM cAMP) 150 nM, PDE8A1 (FAM cAMP) 50 nM, PDE9A2 (FAM cGMP) 60 nM, PDE10A2 (FAM cAMP) 150 nM, PDE11A4 (FAM cAMP) 1000 nM. The intrinsic PDE2 inhibitory activity of a compound which may be used in accordance with the present invention may be determined by these assays.

human PDE2A1, sequence (O00408 other isoform, or with tags, fused parts or gaps): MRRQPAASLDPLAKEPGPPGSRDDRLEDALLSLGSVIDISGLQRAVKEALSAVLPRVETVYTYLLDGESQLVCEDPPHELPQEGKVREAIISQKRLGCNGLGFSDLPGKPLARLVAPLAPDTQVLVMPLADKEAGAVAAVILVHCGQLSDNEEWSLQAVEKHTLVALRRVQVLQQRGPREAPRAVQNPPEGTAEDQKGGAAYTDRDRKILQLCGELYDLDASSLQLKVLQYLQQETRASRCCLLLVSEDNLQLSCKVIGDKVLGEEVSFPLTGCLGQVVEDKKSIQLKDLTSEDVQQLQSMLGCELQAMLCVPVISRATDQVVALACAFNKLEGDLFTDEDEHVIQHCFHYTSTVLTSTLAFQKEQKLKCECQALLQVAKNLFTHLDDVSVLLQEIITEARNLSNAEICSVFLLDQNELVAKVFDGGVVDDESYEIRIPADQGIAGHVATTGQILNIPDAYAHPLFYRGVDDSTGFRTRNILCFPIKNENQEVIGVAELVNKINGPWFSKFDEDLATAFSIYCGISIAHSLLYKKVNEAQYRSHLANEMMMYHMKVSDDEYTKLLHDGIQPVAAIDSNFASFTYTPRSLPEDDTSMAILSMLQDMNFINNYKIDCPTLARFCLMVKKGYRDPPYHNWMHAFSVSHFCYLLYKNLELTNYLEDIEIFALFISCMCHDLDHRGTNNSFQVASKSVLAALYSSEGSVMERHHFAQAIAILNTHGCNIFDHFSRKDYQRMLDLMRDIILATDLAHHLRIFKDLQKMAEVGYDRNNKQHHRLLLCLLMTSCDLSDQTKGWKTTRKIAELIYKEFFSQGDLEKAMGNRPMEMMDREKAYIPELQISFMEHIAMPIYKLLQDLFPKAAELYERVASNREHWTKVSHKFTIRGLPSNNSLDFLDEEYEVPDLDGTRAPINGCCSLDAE

| Ki | SMILES |
| --- | --- |
| 2.4 nM | CC(C)(C)[C@@H](NC(=O)c1cc(=O)[nH]c(-c2ccccc2)n1)c1ccc(CC(F)(F)F)cc1 [Example 537, N-{(1R)-2,2-dimethyl-1-[4-(2,2,2-trifluoroethyl)phenyl]propyl}-6-oxo-2-phenyl-1,6-dihydropyrimidine-4-carboxamide] |
| 1.4 nM | CC(C)(C)[C@@H](NC(=O)c1cc(=O)[nH]c(-c2ccccc2)n1)c1ccc(C(F)(F)F)c(F)c1 [Example 538, N-{(1R)-1-[3-fluoro-4-(trifluoromethyl)phenyl]-2,2-dimethylpropyl}-6-oxo-2-phenyl-1,6-dihydropyrimidine-4-caboxamide] |
| 1.2 nM | CC(C)(C)[C@@H](NC(=O)c1cc(=O)[nH]c(-c2ccccc2)n1)c1ccc(C2CC2)c(F)c1 [Example 539, N-[(1R)-1-(4-cyclopropyl-3-fluorophenyl)-2,2-dimethylpropyl]-6-oxo-2-phenyl-1,6-dihydropyrimidine-4-carboxamide] |
| 1.6 nM | CC(C)(C)[C@@H](NC(=O)c1cc(=O)[nH]c(-c2ccccc2)n1)c1ccc(S(F)(F)(F)(F)F)cc1 [Example 540, N-{(1R)-2,2-dimethyl-1-[4-(pentafluoro-λ^6-sulfanyl)phenyl]propyl}-6-oxo-2-phenyl-1,6-dihydropyrimidine-4-carboxamide] |
| 1.3 nM | CC(C)(C)[C@@H](NC(=O)c1cc(=O)[nH]c(-c2ccccc2)n1)c1ccc(SC(F)(F)F)cc1 [Example 541, N-[(1R)-2,2-dimethyl-1-{4-[(trifluoromethyl)sulfanyl]phenyl}propyl]-6-oxo-2-phenyl-1,6-dihydropyrimidine-4-carboxamide] |
| 1.4 nM | CC(C)(C)[C@@H](NC(=O)c1cc(=O)[nH]c(-c2ccccc2)n1)c1ccc(OC(F)(F)F)c(F)c1 [Example 542, N-{(1R)-1-[3-fluoro-4-(trifluoromethoxy)phenyl]-2,2-dimethylpropyl}-6-oxo-2-phenyl-1,6-dihydropyrimidine-4-carboxamide] |
| 5.2 nM | CC(C)[C@@H](NC(=O)c1cc(=O)[nH]c(-c2ccccc2)n1)c1ccc(OC(F)F)cc1 [Example 543, N-{(1R)-1-[4-(difluoromethoxy)phenyl]-2-methylpropyl}-6-oxo-2-phenyl-1,6-dihydropyrimidine-4-carboxamide] |
| 2.4 nM | O=C(N[C@@H](c1ccc(C2CC2)cc1)C1CC1)c1cc(=O)[nH]c(-c2ccccc2)n1 [Example 544, N-[(R)-cyclopropyl(4-cyclopropylphenyl)methyl]-6-oxo-2-phenyl-1,6-dihydropyrimidine-4-carboxamide] |
| 1.2 nM | CC(C)(C)[C@@H](NC(=O)c1cc(=O)[nH]c(-c2ccccc2)n1)c1ccc(C(F)(F)F)cc1F [Example 545, N-{(1R)-1-[2-fluoro-4-(trifluoromethyl)phenyl]-2,2-dimethylpropyl}-6-oxo-2-phenyl-1,6-dihydropyrimidine-4-carboxamide] |
| 3.8 nM | O=C(N[C@@H](c1ccc(C2CC2)c(F)c1)C1CC1)c1cc(=O)[nH]c(-c2ccccc2)n1 [Example 546, N-[(R)-cyclopropyl(4-cyclopropyl-3-fluorophenyl)methyl]-6-oxo-2-phenyl-1,6-dihydropyrimidine-4-carboxamide] |
| 1.8 nM | CC(C)c1ccc([C@H](NC(=O)c2cc(=O)[nH]c(-c3ccccc3)n2)C2(C)CC2)cc1 [Example 547, N-{(R)-(1-methylcyclopropyl)[4-(1-methylethyl)phenyl]methyl}-6-oxo-2-phenyl-1,6-dihydropyrimidine-4-carboxamide] |
| 4.5 nM | CC1([C@@H](NC(=O)c2cc(=O)[nH]c(-c3ccccc3)n2)c2ccc(OC(F)F)cc2)CC1 [Example 548, N-[(R)-[4-(difluoromethoxy)phenyl](1-methylcyclopropyl)methyl]-6-oxo-2-phenyl-1,6-dihydropyrimidine-4-carboxamide] |
| 4.5 nM | CC1([C@@H](NC(=O)c2cc(=O)[nH]c(-c3ccccc3)n2)c2ccc(S(F)(F)(F)(F)F)cc2)CC1 [Example 549, N-{(R)-(1-methylcyclopropyl)[4-(pentafluoro-λ^6-sulfanyl)phenyl]methyl}-6-oxo-2-phenyl-1,6-dihydropyrimidine-4-carboxamide] |
| 17 nM | C[C@@H](NC(=O)c1cc(=O)[nH]c(-c2ccccc2)n1)c1cc(F)c(C(F)(F)F)cc1F [Example 550, N-{(1R)-1-[2,5-difluoro-4-(trifluoromethyl)phenyl]ethyl}-6-oxo-2-phenyl-1,6-dihydropyrimidine-4-carboxamide] |
| 157 nM | O=C(N[C@@H]1COCc2cc(C(F)(F)F)ccc21)c1cc(=O)[nH]c(-c2ccccc2)n1 [Example 551, 6-oxo-2-phenyl-N-[(4S)-7-(trifluoromethyl)-3,4-dihydro-1H-isochromen-4-yl]-1,6-dihydropyrimidine-4-carboxamide] |
| 96 nM | O=C(N[C@@H]1CCCc2cc(C(F)(F)F)ccc21)c1cc(=O)[nH]c(-c2ccccc2)n1 [Example 552, 6-oxo-2-phenyl-N-[(1R)-6-(trifluoromethyl)-1,2,3,4-tetrahydronaphthalen-1-yl]-1,6-dihydropyrimidine-4-carboxamide] |
| 10 nM | O=C(NC1(c2ccc(S(F)(F)(F)(F)F)cc2)CC1)c1cc(=O)[nH]c(-c2ccccc2)n1 [Example 553, 6-oxo-N-{1-[4-(pentafluoro-λ^6-sulfanyl)phenyl]cyclopropyl}-2-phenyl-1,6-dihydropyrimidine-4-carboxamide] |
| 8.2 nM | CC(C)(C)[C@@H](NC(=O)c1cc(=O)[nH]c(-c2ncccn2)n1)c1ccc(OC(F)(F)F)c(F)c1 [Example 554, N-{(1R)-1-[3-fluoro-4-(trifluoromethoxy)phenyl]-2,2-dimethylpropyl}-6-oxo-1,6-dihydro-2,2′-bipyrimidine-4-carboxamide] |
| 4.5 nM | CC(C)(C)[C@@H](NC(=O)c1cc(=O)[nH]c(-c2ncccn2)n1)c1ccc(SC(F)(F)F)cc1 [Example 555, N-[(1R)-2,2-dimethyl-1-{4-[(trifluoromethyl)sulfanyl]phenyl}propyl]-6-oxo-1,6-dihydro-2,2′-bipyrimidine-4-carboxamide] |
| 7.7 nM | CC(C)(C)[C@@H](NC(=O)c1cc(=O)[nH]c(-c2ncccn2)n1)c1ccc(C(F)(F)F)c(F)c1 [Example 556, N-{(1R)-1-[3-fluoro-4-(trifluoromethyl)phenyl]-2,2-dimethylpropyl}-6-oxo-1,6-dihydro-2,2′-bipyrimidine-4-carboxamide] |
| 8.9 nM | CC(C)(C)[C@@H](NC(=O)c1cc(=O)[nH]c(-c2ncccn2)n1)c1ccc(C2CC2)cc1 [Example 557, N-[(1R)-1-(4-cyclopropylphenyl)-2,2-dimethylpropyl]-6-oxo-1,6-dihydro-2,2′-bipyrimidine-4-carboxamide] |
| 35 nM | CC(C)(C)[C@@H](NC(=O)c1cc(=O)[nH]c(-c2ncccn2)n1)c1ccc(CC(F)(F)F)cc1 [Example 558, N-[(1R)-2,2-dimethyl-1-[4-(2,2,2-trifluoroethyl)phenyl]propyl}-6-oxo-1,6-dihydro-2,2′-bipyrimidine-4-carboxamide] |
| 128 nM | O=C(N[C@@H](c1ccc(OC(F)F)cc1)C1CC1)c1cc(=O)[nH]c(-c2ncccn2)n1 [Example 559, N-{(R)-cyclopropyl[4-(difluoromethoxy)phenyl]methyl}-6-oxo-1,6-dihydro-2,2′-bipyrimidine-4-carboxamide] |
| 5.1 nM | CC(C)[C@@H](NC(=O)c1cc(=O)[nH]c(-c2ncccn2)n1)c1ccc(C2CC2)c(F)c1 [Example 560, N-[(1R)-1-(4-cyclopropyl-3-fluorophenyl)-2-methylpropyl]-6-oxo-1,6-dihydro-2,2′-bipyrimidine-4-carboxamide] |
| 202 nM | CC(C)C(C)(NC(=O)c1cc(=O)[nH]c(-c2ncccn2)n1)c1ccc(S(F)(F)(F)(F)F)cc1 (stereo not shown) [Example 561, N-{1,2-dimethyl-1-[4-(pentafluoro-λ^6-sulfanyl)phenyl]propyl}-6-oxo-1,6-dihydro-2,2′-bipyrimidine-4-carboxamide] |
